The record followed here is US11299478B2, “2-cyanopyrimidin-4-yl carbamate or urea derivative or salt thereof, and pharmaceutical composition including same” (HANLIM PHARMACEUTICAL CO., LTD., priority 2018, dated 2022).

Holding throughout (format): biochemical
One test addresses cathepsin S (Homo sapiens, UniProt P25774). Kind of test: Inhibitory activity assay against cathepsin S (enzyme assay). The following applies: Z-Phe-Arg-AMC 70 μM, enzyme 3 nM, pH 6.5, 45 minutes. The procedure: In order to measure the enzyme activity of cathepsin S, a buffer solution (pH 6.5) consisting of 50 mM MES, 2.5 mM DTT, 1.0 mM EDTA, 0.001% bovine serum albumin (BSA), and 10% DMSO was prepared. The substrate, the test material, and the enzyme were mixed in the buffer solution in a predetermined concentration. The Z-Phe-Arg-AMC substrate was used in the final concentration of 70 μM. The test material was used in the final concentrations of 10.0 μM, 3.33 μM, 1.11 μM, 0.370 μM, 0.123 μM, 0.0412 μM, 0.0137 μM, 0.00457 μM, 0.00152 μM, and 0.000508 μM, respectively. The cathepsin S enzyme was used in the final concentration of 3 nM. The final volume of the enzyme reaction solution was 10 μL.
After reacting the mixture of substrate, test material, and enzyme for 45 minutes, the enzyme activity was measured with the EnVision (Perkin Elmer) microplate reader at an absorption wavelength of 340 nm and an emission wavelength of 460 nm. IC50 values were determined using 4-parameter logistic curve fit program of GraphPad Prism.

In a further test the target is cathepsin B (Homo sapiens, UniProt P07858). Description: Inhibitory activity assay against cathepsin B (enzyme assay). The following applies: Z-Arg-Arg-AMC 40 μM, enzyme 1 nM, pH 6.0, 90 minutes. The procedure: In order to measure the enzyme activity of cathepsin B, a buffer solution (pH 6.0) consisting of 50 mM MES, 5 mM DTT, 2.5 mM EDTA, 0.005% Polysorbate 20, and 10% DMSO was prepared. The substrate, the test material, and the enzyme were mixed in the buffer solution in a predetermined concentration. The Z-Arg-Arg-AMC substrate was used in the final concentration of 40 μM. The test material was used in the final concentrations of 10.0 μM, 3.33 μM, 1.11 μM, 0.370 μM, 0.123 μM, 0.0412 μM, 0.0137 μM, 0.00457 μM, 0.00152 μM, and 0.000508 μM, respectively. The cathepsin B enzyme was used in the final concentration of 1 nM. The final volume of the enzyme reaction solution was 10 μL. After reacting the mixture of substrate, test material, and enzyme for 90 minutes, the enzyme activity was measured with the EnVision (Perkin Elmer) microplate reader at an absorption wavelength of 340 nm and an emission wavelength of 460 nm. IC50 values were determined using 4-parameter logistic curve fit program of GraphPad Prism.

The target in the next test is T1, cathepsin K (Homo sapiens, UniProt P43235).
T1 sequence (P43235 115-329): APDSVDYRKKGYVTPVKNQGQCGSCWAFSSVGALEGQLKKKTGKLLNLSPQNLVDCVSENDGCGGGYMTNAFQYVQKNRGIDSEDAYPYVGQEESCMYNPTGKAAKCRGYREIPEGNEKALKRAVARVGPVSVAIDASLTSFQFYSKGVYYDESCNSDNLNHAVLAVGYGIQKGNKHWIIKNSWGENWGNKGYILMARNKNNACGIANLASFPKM
Description: Inhibitory activity assay against cathepsin K (enzyme assay). To be noted: Z-Phe-Arg-AMC 10 μM, enzyme 1 nM, pH 5.5, 30 minutes. The procedure: In order to measure the enzyme activity of cathepsin K, a buffer solution (pH 5.5) consisting of 50 mM 2-(N-morpholino)ethanesulfonic acid (MES), 2 mM dithiothreitol (DTT), 2.5 mM ethylenediaminetetraacetic acid (EDTA), 0.01% Triton X-100, and 10% dimethyl sulfoxide (DMSO) was prepared. The substrate, the test material, and the enzyme were mixed in the buffer solution in a predetermined concentration. The Z-Phe-Arg-AMC substrate was used in the final concentration of 10 μM. The test material was used in the final concentrations of 10.0 μM, 3.33 μM, 1.11 μM, 0.370 μM, 0.123 μM, 0.0412 μM, 0.0137 μM, 0.00457 μM, 0.00152 μM, and 0.000508 μM, respectively. The cathepsin K enzyme was used in the final concentration of 1 nM. The final volume of the enzyme reaction solution was 10 μL. After reacting the mixture of substrate, test material, and enzyme for 30 minutes, the enzyme activity was measured with the Synergy Neo (Biotek) microplate reader at an absorption wavelength of 355 nm and an emission wavelength of 460 nm. IC50 values were determined using 4-parameter logistic curve fit program of GraphPad Prism.

Another test deals with cathepsin L (Homo sapiens, UniProt P07711). Kind of test: Inhibitory activity assay against cathepsin L (enzyme assay). To be noted: Z-Phe-Arg-AMC 2 μM, enzyme 3 nM, pH 5.5, 30 minutes. The procedure: In order to measure the enzyme activity of cathepsin L, a buffer solution (pH 5.5) consisting of 50 mM MES, 2.5 mM DTT, 2.5 mM EDTA, 0.005% Polysorbate 20, and 10% DMSO was prepared. The substrate, the test material, and the enzyme were mixed in the buffer solution in a predetermined concentration. The Z-Phe-Arg-AMC substrate was used in the final concentration of 2 μM. The test material was used in the final concentrations of 10.0 μM, 3.33 μM, 1.11 μM, 0.370 μM, 0.123 μM, 0.0412 μM, 0.0137 μM, 0.00457 μM, 0.00152 μM, and 0.000508 μM, respectively. The cathepsin L enzyme was used in the final concentration of 3 nM. The final volume of the enzyme reaction solution was 10 μL. After reacting the mixture of substrate, test material, and enzyme for 30 minutes, the enzyme activity was measured with the EnVision (Perkin Elmer) microplate reader at an absorption wavelength of 340 nm and an emission wavelength of 460 nm. IC50 values were determined using 4-parameter logistic curve fit program of GraphPad Prism.
Chain of cathepsin L (P07711 114-333, species assumed): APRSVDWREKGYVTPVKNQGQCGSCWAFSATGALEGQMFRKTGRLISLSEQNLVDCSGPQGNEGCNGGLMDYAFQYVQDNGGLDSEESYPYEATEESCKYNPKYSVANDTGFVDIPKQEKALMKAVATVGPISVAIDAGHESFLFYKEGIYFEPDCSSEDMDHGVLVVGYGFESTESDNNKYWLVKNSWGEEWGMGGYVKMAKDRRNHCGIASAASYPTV

Where only a bound is given, the exact number is not on record here.

As a reminder, the IC50 is the concentration needed to halve the response being measured.

Chain of cathepsin S (P25774 115-331, species assumed): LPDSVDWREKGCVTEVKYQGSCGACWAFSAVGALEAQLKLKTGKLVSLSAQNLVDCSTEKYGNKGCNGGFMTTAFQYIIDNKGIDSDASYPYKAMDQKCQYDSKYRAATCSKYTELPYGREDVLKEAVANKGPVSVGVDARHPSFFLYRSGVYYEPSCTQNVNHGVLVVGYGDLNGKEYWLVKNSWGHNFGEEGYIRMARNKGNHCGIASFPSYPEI

Regarding `COc1ccc(COC(=O)NC2(c3ccnc(C#N)n3)CCCCC2)cc1` [Example 25, 4-methoxybenzyl (1-(2-cyanopyrimidin-4-yl)cyclohexyl)carbamate], the IC50 was more than 10000 nM against cathepsin S, more than 10000 nM against cathepsin B, 41 nM on cathepsin K and more than 10000 nM against cathepsin L.

For the molecule `N#Cc1nccc(C2(NC(=O)OCc3cccc4ccccc34)CCCCC2)n1` [Example 26, naphthalen-1-ylmethyl (1-(2-cyanopyrimidin-4-yl)cyclohexyl)carbamate], the IC50 on cathepsin S is more than 10000 nM; against cathepsin B, more than 10000 nM; at cathepsin K, 61.7 nM; on cathepsin L it was 5950 nM.

As for `N#Cc1nccc(C2(NC(=O)OCc3ccc(F)cc3)CCCCC2)n1` [Example 27, 4-fluorobenzyl (1-(2-cyanopyrimidin-4-yl)cyclohexyl)carbamate], the IC50 against cathepsin S is 7780 nM; against cathepsin B it was more than 10000 nM; on cathepsin K, 22.4 nM; against cathepsin L, 895 nM.

Regarding `N#Cc1nccc(C2(NC(=O)OCc3ccccc3Cl)CCCCC2)n1` [Example 28, 2-chlorobenzyl (1-(2-cyanopyrimidin-4-yl)cyclohexyl)carbamate], the IC50 on cathepsin S is more than 10000 nM; at cathepsin B it was more than 10000 nM; at cathepsin K it was 35.8 nM; on cathepsin L, 8780 nM.

Regarding `CS(=O)(=O)c1ccc(-c2ccc(COC(=O)NC3(c4ccnc(C#N)n4)CCCC3)cc2)cc1` [Example 29, (4′-(methylsulfonyl)-[1,1′-biphenyl]-4-yl)methyl (1-(2-cyanopyrimidin-4-yl)cyclopentyl)carbamate], the IC50 on cathepsin S was more than 10000 nM; against cathepsin B, more than 10000 nM; at cathepsin K, 1570 nM; at cathepsin L, more than 10000 nM.

For `CS(=O)(=O)c1ccc(-c2cccc(COC(=O)NC3(c4ccnc(C#N)n4)CCCC3)c2)cc1` [Example 30, (4′-(methylsulfonyl)-[1,1′-biphenyl]-3-yl)methyl (1-(2-cyanopyrimidin-4-yl)cyclopentyl)carbamate], the IC50 on cathepsin S was 9450 nM; on cathepsin B, more than 10000 nM; at cathepsin K, 355 nM; at cathepsin L it was more than 10000 nM.

Consider `N#Cc1nccc(C2(NC(=O)OCc3ccc(-c4ccc(N5CCOCC5)cc4)cc3)CCCC2)n1` [Example 31, (4′-morpholino-[1,1′-biphenyl]-4-yl)methyl (1-(2-cyanopyrimidin-4-yl)cyclopentyl)carbamate], for which the IC50 is more than 10000 nM on cathepsin S, more than 10000 nM against cathepsin B, 934 nM on cathepsin K and more than 10000 nM at cathepsin L.

As for `N#Cc1nccc(C2(NC(=O)OCc3ccc(-c4ccc(F)nc4)cc3)CCCC2)n1` [Example 33, 4-(6-fluoropyridin-3-yl)benzyl (1-(2-cyanopyrimidin-4-yl)cyclopentyl)carbamate], the IC50 at cathepsin S was more than 10000 nM; against cathepsin B, more than 10000 nM; on cathepsin K, 1620 nM; at cathepsin L, more than 10000 nM.

With `N#Cc1nccc(C2(NC(=O)OCc3cccc(-c4ccc(F)nc4)c3)CCCC2)n1` [Example 35, 3-(6-fluoropyridin-3-yl)benzyl (1-(2-cyanopyrimidin-4-yl)cyclopentyl)carbamate], the IC50 at cathepsin S was more than 10000 nM; on cathepsin B, more than 10000 nM; on cathepsin K it was 492 nM; at cathepsin L, more than 10000 nM.

On to `Cn1ncc2ccc(-c3cccc(COC(=O)NC4(c5ccnc(C#N)n5)CCCC4)c3)cc21` [Example 36, 3-(1-methyl-1H-indazol-6-yl)benzyl (1-(2-cyanopyrimidin-4-yl)cyclopentyl)carbamate], for which the IC50 was 7350 nM against cathepsin S, more than 10000 nM against cathepsin B, 31.9 nM at cathepsin K and more than 10000 nM at cathepsin L.

On to `Cc1cccc(NC(=O)NC2(c3ccnc(C#N)n3)CCCC2)c1` [Example 38, 1-(1-(2-cyanopyrimidin-4-yl)cyclopentyl)-3-(meta-tolyl)urea], for which the IC50 against cathepsin S was more than 10000 nM; at cathepsin B, more than 10000 nM; at cathepsin K, 69.6 nM; at cathepsin L, 8060 nM.

Regarding `N#Cc1nccc(C2(NC(=O)NCc3ccccc3F)CCCC2)n1` [Example 40, 1-(1-(2-cyanopyrimidin-4-yl)cyclopentyl)-3-(2-fluorobenzyl)urea], the half-maximal inhibitory concentration (IC50) against cathepsin S was more than 10000 nM; at cathepsin B it was more than 10000 nM; on cathepsin K, 93.3 nM; at cathepsin L, 9230 nM.

Consider `N#Cc1nccc(C2(NC(=O)Nc3ccccc3)CCCC2)n1` [Example 41, 1-(1-(2-cyanopyrimidin-4-yl)cyclopentyl)-3-phenylurea], for which the 50% inhibitory concentration (IC50) against cathepsin S was more than 10000 nM; on cathepsin B, more than 10000 nM; at cathepsin K it was 39.9 nM; on cathepsin L, 8180 nM.

As for `N#Cc1nccc(C2(NC(=O)NCc3ccccc3)CCCC2)n1` [Example 42, 1-benzyl-3-(1-(2-cyanopyrimidin-4-yl)cyclopentyl)urea], the 50% inhibitory concentration (IC50) at cathepsin S was more than 10000 nM; at cathepsin B, more than 10000 nM; on cathepsin K, 31.2 nM; at cathepsin L it was 7540 nM.

`N#Cc1nccc(C2(NC(=O)NCc3ccc4c(c3)OCO4)CCCC2)n1` [Example 43, 1-(benzo[d][1,3]dioxol-5-ylmethyl)-3-(1-(2-cyanopyrimidin-4-yl)cyclopentyl)urea]: the IC50 against cathepsin S is more than 10000 nM; at cathepsin B, more than 10000 nM; at cathepsin K, 462 nM; on cathepsin L, more than 10000 nM.

Take `N#Cc1nccc(C2(NC(=O)Nc3ccc(Oc4ccccc4)cc3)CCCC2)n1` [Example 44, 1-(1-(2-cyanopyrimidin-4-yl)cyclopentyl)-3-(4-phenoxyphenyl)urea]: the IC50 was more than 10000 nM against cathepsin S, more than 10000 nM against cathepsin B, 18.5 nM on cathepsin K and more than 10000 nM against cathepsin L.

Regarding `Cc1ccccc1CNC(=O)NC1(c2ccnc(C#N)n2)CCCC1` [Example 46, 1-(1-(2-cyanopyrimidin-4-yl)cyclopentyl)-3-(2-methylbenzyl)urea], the half-maximal inhibitory concentration (IC50) was more than 10000 nM at cathepsin S, more than 10000 nM against cathepsin B, 13.2 nM at cathepsin K and 5970 nM at cathepsin L.

Regarding `Cc1ccc(CNC(=O)NC2(c3ccnc(C#N)n3)CCCC2)cc1` [Example 48, 1-(1-(2-cyanopyrimidin-4-yl)cyclopentyl)-3-(4-methylbenzyl)urea], the concentration for half-maximal inhibition (IC50) against cathepsin S was more than 10000 nM; against cathepsin B, more than 10000 nM; on cathepsin K it was 49.6 nM; against cathepsin L it was more than 10000 nM.
